Measurements as given in patent US4552865A, “Psychotropic drugs” (Shionogi & Co., Ltd., priority 1981, dated 1985).
Where a name gives a salt, the structure may show the parent alone. Read-outs that look alike come from different tables or passages of the source. Where a SMILES comes first, the peptide text is derived from it. [ ]: non-standard residue; d: D form. sY = N[C@@H](Cc1ccc(OS(=O)(=O)O)cc1)C(=O)O; pGlu = O=C1CC[C@@H](C(=O)O)N1

Columns and labels:
[1] = tested on: patients of schizophrenia
Procedure: (1) Method of application: Caerulein tris-diethylamine salt is dissolved in sterilized physiological saline at a rate of 20 μg/ml (W/V), and intramuscularly injected to each patient once at a dose of 0.3 μg/kg (body weight) or 0.6 μg/kg (body weight).

mice = details: intravenous, cited from earlier work
rats = details: intravenous, cited from earlier work

| SMILES | mental conditions ([1]; administered to humans) | LD50 (mice; female) | LD50 (mice; male) | LD50 (rats; female) | LD50 (rats; male) | Side effect ([1]; individual schizophrenia patient, after i.m. injection) |
| --- | --- | --- | --- | --- | --- | --- |
| CSCC[C@H](NC(=O)[C@H](Cc1c[nH]c2ccccc12)NC(=O)CNC(=O)[C@@H](NC(=O)[C@H](Cc1ccc(OS(=O)(=O)O)cc1)NC(=O)[C@H](CC(=O)O)NC(=O)[C@H](CCC(N)=O)NC(=O)[C@@H]1CCC(=O)N1)[C@@H](C)O)C(=O)N[C@@H](CC(=O)O)C(=O)N[C@@H](Cc1ccccc1)C(N)=O [caerulein, 5-oxo-L-prolyl-L-glutaminyl-L-aspartyl-O-sulfo-L-tryosyl-L-threonylglycyl-L-tryptophyl-L-methionyl-L-aspartyl-L-phenylalaninamide] ([pGlu]QD[sY]TGWMDF-NH2) | improves rapidly and markedly the mental conditions | 702 mg/kg | 647 mg/kg | 571 mg/kg | 714 mg/kg | – |
| CSCC[C@H](NC(=O)[C@H](Cc1c[nH]c2ccccc12)NC(=O)CNC(=O)[C@@H](NC(=O)[C@H](Cc1ccc(OS(=O)(=O)O)cc1)NC(=O)[C@H](CC(=O)O)NC(=O)[C@H](CCC(N)=O)NC(=O)[C@@H]1CCC(=O)N1)[C@@H](C)O)C(=O)N[C@@H](CC(=O)O)C(=O)N[C@@H](Cc1ccccc1)C(N)=O [Caerulein tris-diethylamine salt] ([pGlu]QD[sY]TGWMDF-NH2) | – | – | – | – | – | No |
